Values joined by “and” are separate entries in the source; they are usually repeats but may differ in a detail not shown here. Equal entries are not always repeated.
Legend:
[1] = Plasma concentration in dog cardiovascular safety study; type: in vivo
Procedure: (§1) Dogs were administered morphine (2 mg/kg subcutaneously) approximately 10-19 minutes prior to administration of anesthesia. Dogs were anesthetized with 1% α-chloralose (100 mg/kg intravenous), followed by a constant infusion of α-chloralose (35-75 mg/kg/hr, IV). Two healthy female dogs were administered escalating doses of sulcardine sulfate intravenously over 15 minutes in an acetate buffer system at dose levels of 10, 30 and 90-mg/kg with dose administrations separated by 60 minutes. Following drug administration, dogs were evaluated for ventricular, pulmonary and peripheral hemodynamic changes using Swanz Ganz and femoral catheters as well as by monitoring of blood oxygen saturation, test article blood level, body temperature, blood biochemistries, hematologies, ECG, and histamine.
The mean peak sulcardine sulfate concentrations which peaked generally at the […] of each 15 minute infusion of sulcardine sulfate at 10, 30 and 90 mg/kg were 1.8, 11.2 and 100.1 μg/mL respectively which translated into approximately 4, 24.6 and 218 μM.

[2] = system: anesthetized dogs; test: Cardiovascular safety in anesthetized dogs with diphenhydramine pretreatment; type: in vivo, dog; settings: diphenhydramine pre-treated animals
Procedure: as §1, with “90 mg/kg” for “90-mg/kg”, “minutes. Another set of two dogs received test article after pre-treatment with diphenhydramine (1 mg/kg administered 30 minutes prior to start of test article infusion).” for “minutes.”, “biochemistry, hematology,” for “biochemistries, hematologies,”, “histamine levels.” for “histamine.”
Group 2 Animals: Sulcardine sulfate at 10, 30 and 90 mg/kg with diphenhydramine (1 mg/kg) administered approximately 30 minutes before treatment with 10 mg/kg sulcardine sulfate. Animals pre-treated with diphenhydramine (H1 antagonist) and dosed with sulcardine sulfate at 10 mg/kg, presented hemodynamic changes which are mediated by H2 receptors. The changes resembled those noted in Group 1 animals, but were of a reduced magnitude. […]

[3] = system: minipigs; test: Cardiovascular safety in anesthetized minipigs, escalating 15-minute IV infusions; type: in vivo, minipig
Procedure: Animals were administered morphine (2 mg/kg subcutaneously) prior to induction of anesthesia. […] Animals were placed on a heating pad set to maintain the animal's body temperature at approximately 37° C. Body temperature was monitored throughout the experiment via a rectal thermometer or via the Swan Ganz (thermodilution catheter) once implanted. Animals were intubated and placed on a ventilator supplemented with oxygen to maintain oxygenation within the normal physiological range. The animals were mechanically ventilated at a rate of 11-13 breaths/minute and a peak inspiratory pressure of 18 cm H2O. The following parameters were regularly monitored in order to ensure proper ventilation of the animals but are not reported: SpO2, inspiratory and expiratory CO2, inspiratory O2 and respiratory rate.
(§2) A Swan Ganz (thermodilution catheter) was inserted into the right femoral vein via phlebotomy and advanced into the pulmonary artery for cardiac output measurements. A catheter was inserted in the left femoral artery via an arteriotomy for blood gas determination. Another catheter was inserted in the left femoral vein for blood collection for toxicokinetic evaluation. Finally, an incision was also performed on the left side of the neck to expose the left carotid artery and an electronic dual pressure sensor catheter (Millar) was placed via arteriotomy and advanced into the left ventricle. The catheter was positioned to simultaneously collect left ventricle blood pressure measurements as well as aortic pressure. In addition, a temporary catheter was placed in any of the cephalic veins for administration of Lactated Ringers at 10 mL/kg/hr throughout the course of the experiment.
(§3) Following surgical preparation, hemodynamic and electrocardiographic parameters were allowed to stabilize for at least 15 minutes. The vehicle control and test article were then administered, and hemodynamic, electrocardiographic, histamine and PK parameters were monitored.

[4] = Plasma concentration in minipig cardiovascular safety study; type: in vivo
Procedure: as §2, §3
Peak plasma concentrations of sulcardine sulfate increased with increasing dose. […]

[5] = system: conscious beagle dogs; test: Hemodynamics and plasma histamine in conscious beagle dogs, 10 minute infusions of increasing doses; type: in vivo, beagle dog; settings: for Heart rate / Histamine Concentration / Mean blood pressure: 10 minute infusion
Procedure: The effect of sulcardine sulfate intravenously administered over a 10 minute infusion on the mean blood pressure, heart rate, and plasma histamine concentration of conscious beagle dogs was performed. Three male and female purpose-bred beagles, weighing 10.0-12.7 Kg were intravenously administered repeated increasing doses of sulcardine sulfate (cumulative dose 1-44 mg/kg) at 15 minute intervals following a 10 minute infusion of the prior dose. The administered doses were as follows: 1 mg/kg, 3 mg/kg, 10 mg/kg, and 30 mg/kg sulcardine sulfate. Heart rate, mean arterial blood pressure, and histamine concentrations were measured (Table 3) at 10 minute intervals after completion of each drug infusion period.

[6] = system: post-MI beagle dogs; test: Hemodynamic effects in anesthetized post-MI sudden cardiac death model; type: in vivo, beagle dog; settings: 15 mg/kg
Procedure: A hemodynamic effects study of sulcardine sulfate in an anesthetized post-MI sudden cardiac death model study was also performed. The study population consisted of ten purpose-bred, female beagle dogs, weighing 10.0-12.0 Kg. The animals had left ventricular wall ischemic injury induced by a 90-minute occlusion of the left anterior descending coronary artery followed by reperfusion. Five animals were treated with sulcardine sulfate (15 mg/kg) infused intravenously over 10 minutes, and the remaining five animals were vehicle dogs treated with 0.9% sodium chloride solution (placebo). Lowest mean arterial blood pressure was measured every 15 minutes for a total period of 120 minutes after treatment.

Substance: sulcardine sulfate
- mean peak plasma concentration ([1]; 90 mg/kg, 15 minute infusion): 100.1 μg/mL and ~218 μM
- Cmax ([1]; dogs, read-out: Cmax that led to observed side effects such as hypotension): 25 µM
- mortality ([2]; 90 mg/kg, final 15-minute infusion): all animals succumbed
- severity of tachycardia ([2]; after completion of dosing at 30 mg/kg): above 200 % of baseline
- QTcC prolongation ([3]; 10 mg/kg, Animal 1601C): 15%
- PR interval increase ([3]; 10 mg/kg, per animal): +38% and +10%
- mortality ([3]; 90 mg/kg, during or at completion of the 15-minute infusion): both animals succumbed
- QTcC prolongation ([3]; 30 and 90 mg/kg, both animals): up to 30%
- histamine levels ([3]; all doses): no appreciable increases
- QRS durations ([3]; starting at 10 mg/kg, both animals): dose dependent pattern of increasing QRS durations
- mean peak plasma concentration ([4]; 90 mg/kg, 15 minute infusion): 25.6 ug/mL and 56.3 μM
- Cmax ([4]; minipigs, read-out: Cmax that led to observed side effects such as hypotension): 13.6 µM
- Heart rate ([5]; 1 mg/kg): 90.00 ± 12.58 bpm
- Histamine Concentration ([5]; 1 mg/kg): 93.95 ± 24.11 ng/mL
- Mean blood pressure ([5]; 1 mg/kg): 166.7 ± 10.99 mmHg
- Heart rate ([5]; 3 mg/kg): 110.00 ± 10.41 bpm
- Histamine Concentration ([5]; 3 mg/kg): 182.5 ± 46.11 ng/mL
- Mean blood pressure ([5]; 3 mg/kg): 170.7 ± 7.36 mmHg
- Heart rate ([5]; 10 mg/kg): 111.7 ± 17.64 bpm
- Histamine Concentration ([5]; 10 mg/kg): 252.6 ± 85.78 ng/mL
- Mean blood pressure ([5]; 10 mg/kg): 101.0 ± 28.45 mmHg
- Heart rate ([5]; 30 mg/kg): 111.7 + 6.01 bpm
- Histamine Concentration ([5]; 30 mg/kg): 465.9 ± 27.75 ng/mL
- Mean blood pressure ([5]; 30 mg/kg): 69.7 ± 14.7 mmHg
- observations during intravenous administration over 10 minutes ([5]; with erythemitous flare of face and ears and urticaria (hives)): dose-dependent decrease in arterial blood pressure
- time after completion of infusion by which arterial blood pressure was not different from baseline or placebo [6]: ≤ 50 min
- mean arterial blood pressure compared to baseline values ([6]; at fifteen, thirty, and forty-five minutes after completing a 10 minute infusion, P<0.05): significantly lower

Source: patent publication US8541464B2, “Treatment of atrial fibrillation” (HUYA Biosciences International LLC, priority 2009, dated 2013)
